Test [1] deals with SW48. Put plainly: CellTiterGlo in vitro viability, 4-day treatment, SW48. Type of test: cell-based. From the text: (§1) Growth inhibition %: 0-99=delayed proliferation, 100=growth arrest/stasis, 101-200=reduction in cell number/cell death.
In the next test the test system is HCT116. Kind of test: CellTiterGlo in vitro viability, 4-day treatment, HCT116. The format is cell-based.
From the text: as §1
On the technique in general: Cellular ATP, detected with luciferase, serves as a proxy for viable cell number.

The target of a further test is WRN (Homo sapiens, UniProt Q14191). Put plainly: WRN ATPase activity assay. The format is biochemical. To be noted: assay of WO2022/249060. From the text: (§2) According to the assays disclosed in the application PCT/IB2022/054850 published as WO2022/249060, which is hereby incorporated by reference, the compounds were active as shown in Table X
Sequence of WRN (Q14191 whole entry): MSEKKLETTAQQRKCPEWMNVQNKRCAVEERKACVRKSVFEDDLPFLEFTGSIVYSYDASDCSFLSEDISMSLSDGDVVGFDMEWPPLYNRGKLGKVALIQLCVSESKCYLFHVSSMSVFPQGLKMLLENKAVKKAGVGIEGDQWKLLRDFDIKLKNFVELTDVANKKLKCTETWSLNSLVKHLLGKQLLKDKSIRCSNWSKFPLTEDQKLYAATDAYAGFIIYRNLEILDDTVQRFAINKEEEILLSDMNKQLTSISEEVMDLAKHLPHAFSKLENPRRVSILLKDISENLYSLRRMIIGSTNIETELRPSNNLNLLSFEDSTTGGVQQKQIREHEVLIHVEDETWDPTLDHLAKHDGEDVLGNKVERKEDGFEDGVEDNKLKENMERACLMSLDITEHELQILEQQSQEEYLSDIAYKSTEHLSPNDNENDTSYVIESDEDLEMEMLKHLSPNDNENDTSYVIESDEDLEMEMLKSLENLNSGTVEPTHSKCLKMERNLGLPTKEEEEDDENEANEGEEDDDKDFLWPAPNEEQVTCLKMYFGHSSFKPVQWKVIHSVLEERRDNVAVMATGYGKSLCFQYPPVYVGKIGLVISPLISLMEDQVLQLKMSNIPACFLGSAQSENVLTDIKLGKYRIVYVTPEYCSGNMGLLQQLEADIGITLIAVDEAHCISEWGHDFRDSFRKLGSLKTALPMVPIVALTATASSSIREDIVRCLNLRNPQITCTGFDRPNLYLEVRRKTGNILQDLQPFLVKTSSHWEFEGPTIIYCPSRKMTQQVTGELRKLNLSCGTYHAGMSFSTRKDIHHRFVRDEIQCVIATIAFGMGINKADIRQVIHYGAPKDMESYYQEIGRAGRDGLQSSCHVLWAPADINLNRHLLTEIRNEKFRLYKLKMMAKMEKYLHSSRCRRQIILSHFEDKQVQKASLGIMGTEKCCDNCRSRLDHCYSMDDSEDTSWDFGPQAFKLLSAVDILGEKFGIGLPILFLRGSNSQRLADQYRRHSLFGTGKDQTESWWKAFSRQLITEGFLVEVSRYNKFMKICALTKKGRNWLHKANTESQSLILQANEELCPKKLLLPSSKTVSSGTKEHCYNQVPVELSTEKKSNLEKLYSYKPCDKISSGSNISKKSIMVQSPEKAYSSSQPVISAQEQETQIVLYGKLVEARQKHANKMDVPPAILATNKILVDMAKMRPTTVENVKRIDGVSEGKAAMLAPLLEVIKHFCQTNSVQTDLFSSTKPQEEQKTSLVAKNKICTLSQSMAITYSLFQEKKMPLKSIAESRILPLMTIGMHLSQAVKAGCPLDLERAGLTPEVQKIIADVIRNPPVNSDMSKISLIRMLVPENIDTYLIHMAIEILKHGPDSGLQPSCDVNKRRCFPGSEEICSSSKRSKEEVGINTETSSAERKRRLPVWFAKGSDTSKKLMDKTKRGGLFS
Test [2] has as its system SW48. Put plainly: Proliferation assay SW48. The format is cell-based. To be noted: Homo sapiens, assay of WO2022/249060.
From the text: as §2

The next test has as its system DLD1-WRN-KO. Kind of test: Proliferation assay DLD1-WRN-KO. Type of test: cell-based. As to conditions: assay of WO2022/249060.
From the text: as §2

Test [3] concerns SW48 colorectal carcinoma cells. Kind of test: SW48 xenograft efficacy in nude mice. The format is in vivo. To be noted: Example 12; trametinib 0.3 mg/kg p.o. qd; BRAF WT SW48. The procedure:
All animals were allowed to adapt for 7 days and housed in a pathogen-controlled environment (5 mice/Type III cage) with access to food and water ad libitum and were identified with transponders.
5.0×10^6 SW48 colorectal carcinoma cells were implanted subcutaneously in nude mice (Charles River, Germany). Treatment was initiated when tumors reached 150-200 mm^3 volume. Efficacy studies and tumor response were measured as above.

Regarding `O=c1[nH]cc(F)c(=O)[nH]1` [5-fluorouracil], the “proliferation of SW48 cells, single agent” value (shortened to “proliferation of SW48 cells”) in the test on SW48 [1] is recorded as “inhibited”.

With `C[C@@]1(CO)[C@H](O)CC[C@@]2(C)[C@H]1CC[C@H]1C[C@@H]3C[C@@]12CC[C@]3(O)CO` [Aphidicolin, aphidicolin], the “proliferation of SW48 cells” value in the test on SW48 [1] is recorded as “inhibited”.

With `CC[C@@]1(O)C(=O)OCc2c1cc1n(c2=O)Cc2cc3ccccc3nc2-1` [Camptothecin, camptothecin], the “proliferation of SW48 cells” value with SW48 [1] is given as “inhibited”.

`CCc1c(N2CCN(C(=O)c3ncccc3O)CC2)c(=O)n2nc(C3=CCOCC3)nc2n1CC(=O)Nc1ccc(C(F)(F)F)cc1C` [Compound B]: the “proliferation of HCT116 cells, single agent” value in the test on HCT116 is listed as “inhibited”. Further, the “proliferation of SW48 cells” value in the test on SW48 [1] is given as “inhibited”.

As to `COc1cccc2c1C(=O)c1c(O)c3c(c(O)c1C2=O)C[C@@](O)(C(=O)CO)C[C@@H]3O[C@H]1C[C@H](N)[C@H](O)[C@H](C)O1` [Doxorubicin, doxorubicin], the “proliferation of HCT116 cells, single agent” value in the test on HCT116 was “inhibited”. Also, the “proliferation of SW48 cells” value in the test on SW48 [1] is “inhibited”.

In the case of `Nc1ccn([C@@H]2O[C@H](CO)[C@@H](O)C2(F)F)c(=O)n1` [Gemcitabin, gemcitabine], the “proliferation of SW48 cells” value in the test with SW48 [1] is on record as “inhibited”.

For the compound `COc1ncc(-c2nc3c(n2C(C)C)[C@H](c2ccc(Cl)cc2)N(c2cc(Cl)cn(C)c2=O)C3=O)c(OC)n1` [HDM201], in the test on SW48 [1], the “proliferation of SW48 cells” value is recorded as “to some extent”.

Regarding `C[C@@H]1CN(CC(=O)Nc2ccc3c(c2)Cc2cccc(-c4cc(=O)cc(N5CCOCC5)o4)c2S3)C[C@H](C)O1` [KU-60019], the “proliferation of SW48 cells” value with SW48 [1] is recorded as “inhibited”.

On to `O=c1cc(N2CCOCC2)oc2c(-c3cccc4c3sc3ccccc34)cccc12` [NU7441 (KU-57788)], for which, in the test on SW48 [1], the “proliferation of SW48 cells” value is reported as “inhibited”.

For `CCc1nc2c(NC(C)(C)C)nc(Nc3ccc4nc(OCCN5CCOCC5)ccc4c3)nc2[nH]1` [QAP1], the “proliferation of SW48 cells” value in the test with SW48 [1] is recorded as “inhibited”.

What is called IC50 is the point on the concentration scale where inhibition reaches its midpoint. A lower IC50 goes with greater potency. By GI50 is commonly meant the concentration that inhibits growth by half. On WRN, `CCc1c(N2CCN(C(=O)c3ncccc3O)CC2)c(=O)n2nc(C3=CCN(C(=O)CCC(=O)N[C@H](C(=O)N4C[C@H](O)C[C@H]4C(=O)N[C@@H](C)c4ccc(-c5scnc5C)cc4)C(C)(C)C)CC3)nc2n1CC(=O)Nc1ccc(C(F)(F)F)cc1C` [X, (2S,4R)-1-((S)-2-(4-(4-(5-ethyl-6-(4-(3-hydroxypicolinoyl)piperazin-1-yl)-4-(2-((2-methyl-4-(trifluoromethyl)phenyl)amino)-2-oxoethyl)-7-oxo-4,7-dihydro-[1,2,4]triazolo[1,5-a]pyrimidin-2-yl)-3,6-dihydropyridin-1(2H)-yl)-4-oxobutanamido)-3,3-dimethylbutanoyl)-4-hydroxy-N—((S)-1-(4-(4-methylthiazol-5-yl)phenyl)ethyl)pyrrolidine-2-carboxamide] came in with an IC50 of 160 nM. For the same compound, the 50% growth inhibitory concentration (GI50) was 3840 nM in the test on SW48 [2] and over 10000 nM in the test with DLD1-WRN-KO.

On WRN, `CCc1c(N2CCN(C(=O)c3ncccc3O)CC2)c(=O)n2nc(C3=CCN(C(=O)[C@H](CC(C)C)NC(=O)[C@@H](O)[C@H](N)Cc4ccccc4)CC3)nc2n1CC(=O)Nc1ccc(C(F)(F)F)cc1C` [Y, (2S,3R)-3-amino-N—((S)-1-(4-(5-ethyl-6-(4-(3-hydroxypicolinoyl)piperazin-1-yl)-4-(2-((2-methyl-4-(trifluoromethyl)phenyl)amino)-2-oxoethyl)-7-oxo-4,7-dihydro-[1,2,4]triazolo[1,5-a]pyrimidin-2-yl)-3,6-dihydropyridin-1(2H)-yl)-4-methyl-1-oxopentan-2-yl)-2-hydroxy-4-phenylbutanamide] gave a half-maximal inhibitory concentration (IC50) of 140 nM. The results for the concentration for 50% growth inhibition (GI50) in the test on SW48 [2] and with DLD1-WRN-KO were 1190 nM and over 10000 nM, respectively.

Take `CCc1c(N2CCN(C(=O)c3ncccc3O)CC2)c(=O)n2nc(C3=CCN(C(=O)CCCCCOc4ccc5c(c4)C(=O)N(C4CCC(=O)NC4=O)C5)CC3)nc2n1CC(=O)Nc1ccc(C(F)(F)F)cc1C` (stereo not drawn) [Z, 2-(2-(1-(6-((2-(2,6-dioxopiperidin-3-yl)-3-oxoisoindolin-5-yl)oxy)hexanoyl)-1,2,3,6-tetrahydropyridin-4-yl)-5-ethyl-6-(4-(3-hydroxypicolinoyl)piperazin-1-yl)-7-oxo-[1,2,4]triazolo[1,5-a]pyrimidin-4(7H)-yl)-N-(2-methyl-4-(trifluoromethyl)phenyl)acetamide]: at WRN, the half-inhibitory concentration (IC50) amounted to 90 nM. The results for the 50% growth inhibitory concentration (GI50) in the test on SW48 [2] and in the test with DLD1-WRN-KO were 1310 nM and over 10000 nM, respectively.

`N.N.[Cl][Pt][Cl]` [cisplatin]: the “proliferation of SW48 cells” value in the test with SW48 [1] is on record as “inhibited”.

Regarding `CC(=O)Nc1cccc(-n2c(=O)n(C3CC3)c(=O)c3c(Nc4ccc(I)cc4F)n(C)c(=O)c(C)c32)c1` [trametinib], in test [3], the “effect on tumor growth” value is on record as “no effect”.

Take bleomycin: the “proliferation of SW48 cells” value with SW48 [1] is recorded as “inhibited”.

The values are drawn from patent US20240197715A1, “PHARMACEUTICAL COMBINATIONS AND USES THEREOF” (NOVARTIS AG, priority 2022, published 2024).
